pIC50: −log10 of the molar value.
target: T1, aurora A kinase (Homo sapiens, UniProt O14965); experiment: Aurora A in vitro kinase assay (ELISA); assay type: biochemical; conditions: 30 μM ATP, 45 minutes
T1 sequence (O14965 1-403): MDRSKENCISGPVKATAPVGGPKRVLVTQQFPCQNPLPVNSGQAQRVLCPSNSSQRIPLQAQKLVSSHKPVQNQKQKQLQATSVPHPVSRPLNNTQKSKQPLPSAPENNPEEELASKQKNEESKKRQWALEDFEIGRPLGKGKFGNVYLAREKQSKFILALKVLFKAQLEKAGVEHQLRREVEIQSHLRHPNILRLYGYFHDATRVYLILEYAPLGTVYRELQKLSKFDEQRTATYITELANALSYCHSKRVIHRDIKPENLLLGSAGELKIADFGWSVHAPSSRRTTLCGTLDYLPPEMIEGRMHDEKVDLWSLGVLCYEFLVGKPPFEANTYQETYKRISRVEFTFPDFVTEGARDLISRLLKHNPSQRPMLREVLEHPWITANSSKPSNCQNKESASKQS
Procedure: Kinase activities were measured by Enzyme-Linked Immunosorbent Assay (ELISA): Maxisorp 384-well plates (Nunc) were coated with recombinant fusion protein comprising residues 1-15 of Histone H3 fused to the N-terminus of Glutathione-S-Transferase. Plates were then blocked with a solution of 1 mg/mL I-block (Tropix Inc) in phosphate-buffered saline. Kinase reactions were carried out in the wells of the ELISA plate by combining an appropriate amount of Aur A and B kinases and/or mutants thereof with test compound and 30 μM ATP. The reaction buffer was 1× Kinase Buffer (Cell Signaling Technologies) supplemented with 1 μg/mL I-block. Reactions were stopped after 45 minutes by addition of 25 mM EDTA. After washing, susbstrate phosphorylation was detected by addition of anti-phospho-Histone H3 (Ser 10) 6G3 mAb (Cell Signaling cat #9706) and sheep anti-mouse pAb-HRP (Amersham cat# NA931V), followed by colorimetric development with TMB.

pIC50	SMILES
8.38	CC(C)(C)C(=O)Nc1ccccc1Nc1nc(Nc2ccc(N3CCOCC3)cc2)ncc1Cl [compound 77]
8.30	O=C(Nc1ccccc1Nc1nc(Nc2ccc(N3CCOCC3)cc2)ncc1F)C1CC1 [compound 111]
8.19	O=C(Nc1ccccc1Nc1nc(Nc2ccc(-n3cccc3)cc2)ncc1Cl)C1CC1 [compound 53]
8.36	O=C(/C=C/c1ccccc1)Nc1ccccc1Nc1nc(Nc2ccc(N3CCOCC3)cc2)ncc1Cl [compound 63]
7.85	O=C(Nc1ccccc1Nc1nc(Nc2ccc(N3CCOCC3)cc2)ncc1Cl)C1CCCCC1 [compound 75]
8.37	O=C(NC1CC1)c1ccccc1Nc1nc(Nc2ccc(N3CCOCC3)cc2)ncc1Cl [compound 85]
7.74	O=C(Nc1ccccc1Nc1nc(Nc2ccc(N3CCOCC3)cc2)ncc1Cl)c1ccccc1 [compound 67]
8.74	O=C(Nc1ccccc1Nc1nc(Nc2ccc(C(=O)N3CCC(O)(Cc4ccccc4)CC3)cc2)ncc1Cl)C1CC1 [compound 44]
8.30	Nc1ccccc1Oc1nc(Nc2ccc(N3CCS(=O)(=O)CC3)cc2)ncc1Cl [compound 83]
7.92	CC(C)(C)C1CCC(NC(=O)c2ccc(Nc3ncc(Cl)c(Nc4ccccc4NC(=O)C4CC4)n3)cc2)CC1 (centres unmarked) [compound 40]
8.60	CN(C)CCNC(=O)c1ccc(Nc2ncc(Cl)c(Nc3ccccc3NC(=O)C3CC3)n2)cc1 [compound 9]
7.44	O=C(Nc1ccccc1Oc1nc(Nc2ccc(N3CCOCC3)cc2)ncc1Cl)C1CC1 [compound 80]
8.89	N#Cc1ccc(Nc2ncc(Cl)c(Nc3ccccc3NC(=O)C3CC3)n2)cc1 [compound 32]
7.99	O=C(Nc1ccccc1Nc1nc(Nc2ccc(N3CCOCC3)cc2)ncc1[N+](=O)[O-])C1CC1 [compound 127]

Source: patent US20100144732A1, “PYRIMIDINE KINASE INHIBITORS” (priority 2006, published 2010)
